# Reference: patent US7176224B2, “Oxazolyl-aryloxyacetic acid derivatives and their use as PPAR agonists” (Eli Lilly and Company, priority 2000, dated 2007)
# Experiments:
# Hu apoAI transgenic mice = test: Evaluation of triglyceride and cholesterol levels in hu apoAI transgenic mice; type: in vivo; conditions: 30 mg/kg oral gavage daily for 7 days; serum HDLc FPLC area under the curve, over mice receiving vehicle
# Protocol: Five to six week old male mice, transgenic for human apoAI [C57B1/6-tgn(apoa1) 1rub, Jackson Laboratory, Bar Harbor, Me.] were housed five per cage (10″×20″8″ with aspen chip bedding) with food (Purina 5001) and water available at all times. After an acclimation period of 2 weeks, animals were individually identified by ear notches, weighed, and assigned to groups based on body weight. Beginning the following morning, mice were dosed daily by oral gavage for 7 days using a 20 gauge, 1½″ curved disposable feeding needle (Popper & Sons). Treatments were test compounds (30 mg/kg), a positive control (fenofibrate, 100 mg/kg) or vehicle [1% carboxymethylcellulose (w/v)/0.25% Tween80 (w/v); 0.2 ml/mouse]. Prior to termination on day 7, mice were weighed and dosed. Three hours after dosing, animals were anesthetized by inhalation of isoflurane (2–4%; Abbott Laboratories, Chicago, Ill.) and blood obtained via cardiac puncture (0.7–1.0 ml). Whole blood was transferred to serum separator tubes (Vacutainer SST), chilled on ice, and permitted to clot. Serum was obtained after centrifugation at 4° C. and frozen until analysis for triglycerides, total cholesterol, compound levels, and serum lipoprotein profile by fast protein liquid chromatography (FPLC) coupled to an inline detection system. After sacrifice by cervical dislocation, the liver, heart and epididymal fat pads were excised and weighed.
# The animals dosed with vehicle had average triglycerides values of 60–80 mg/dl, which were reduced by the positive control fenofibrate (33–58 mg/dl with a mean reduction of 37%). The animals dosed with vehicle had average total serum cholesterol values of 140–180 mg/dl, which were increased by fenofibrate (190–280 mg/dl, with a mean elevation of 41%). […] increased the amount of HDLc (68–96 v-sec with a mean percent increase of 48%).
# Glucose was measured colorimetrically using commercially purchased reagents (Sigma #315-500). According to the manufacturers, the procedures were modified from published work (McGowan, M. W., Artiss, J. D., Strandbergh, D. R. & Zak, B. Clin Chem, 20:470–5 (1974) and Keston, A. Specific colorimetric enzymatic analytical reagents for glucose. Abstract of papers 129th Meeting ACS, 31C (1956).); and depend on the release of a mole of hydrogen peroxide for each mole of analyte, coupled with a color reaction first described by Trinder (Trinder, P. Determination of glucose in blood using glucose oxidase with an alternative oxygen acceptor. Ann Clin Biochem, 6:24 (1969)). The absorbance of the dye produced is linearly related to the analyte in the sample. The assays were further modified in our laboratory for use in a 96 well format. Standards (Sigma #339-11, Sigma #16-11, and Sigma #CC0534 for glucose, triglycerides and total cholesterol, respectively), quality control plasma (Sigma # A2034), and samples (2 or 5 μl/well) were measured in duplicate using 200 μl of reagent. An additional aliquot of sample, pipetted to a third well and diluted in 200 μl water, provided a blank for each specimen. Plates were incubated at room temperature (18, 15, and 10 minutes for glucose, triglycerides and total cholesterol, respectively) on a plate shaker (DPC Micormix 5) and absorbance read at 500 nm (glucose and total cholesterol) or 540 nm (triglycerides) on a plate reader (Wallac Victor 1420). Sample absorbances were compared to a standard curve (100–800, 10–500, and 100–400 mg/dl for glucose, triglycerides and total cholesterol, respectively). Values for the quality control sample were always within the expected range and the coefficient of variation for samples was below 10%. All samples from an experiment were assayed at the same time to minimize inter-assay variability.
# Serum lipoproteins were separated and cholesterol quantitated with an in-line detection system. Sample was applied to a Superose® 6 HR 10/30 size exclusion column (Amersham Pharmacia Biotech) and eluted with phosphate buffered saline-EDTA at 0.5 ml/min. […]
# huPPARγ = test: Cotransfection assay in CV-1 cells, luciferase reporter; type: cell-based, human; conditions: GAL4 chimeric system, relative to agonist reference molecule
# Protocol: […] binding (ABCD binding) was carried out using SPA technology with PPAR receptors. […] Cotransfection assays were carried out in CV-1 cells. The reporter plasmid contained an acylCoA oxidase (AOX) PPRE and TK promoter upstream of the luciferase reporter cDNA. Appropriate PPARs and RXRα were constitutively expressed using plasmids containing the CMV promoter. […] In order to eliminate such interference, a GAL4 chimeric system was used in which the DNA binding domain of the transfected PPAR was replaced by that of GAL4, and the GAL4 response element was utilized in place of the AOX PPRE. […] Efficacies were determined by computer fit to a concentration-response curve, or in some cases at a single high concentration of agonist (10 μM). For binding or cotransfection studies with receptors other than PPARs, similar assays were carried out using appropriate ligands, receptors, reporter constructs, etc., for that particular receptor.
# These studies were carried out to evaluate the ability of compounds of the invention to bind to and/or activate various nuclear transcription factors, particularly huPPARα (“hu” indicates “human”) and huPPARγ. These studies provide in vitro data concerning efficacy and selectivity of compounds of the invention. Furthermore, binding and cotransfection data for compounds of the invention were compared with corresponding data for marketed compounds that act on either huPPARα or huPPARγ.
compound,measurement,setting,value
"Cc1oc(-c2cccc(-c3ccc(F)cc3)c2)nc1CCOc1ccc(CC(C)(Oc2ccccc2)C(=O)O)cc1 (centres unmarked) [Example 4, 3-(4-{2-[2-(4′-Fluorobiphenyl-3-yl)-5-methyloxazol-4-yl]ethoxy}phenyl)-2-methyl-2-phenoxypropionic acid]",% HDLc Increase,Hu apoAI transgenic mice,40.4%
same,huPPARγ CTF Efficacy,huPPARγ,93%
